A short description of data set [1]: Additive solubility in oil and water phase versus quantity dissolved in the emulsion. Format: physicochemical. On the procedure: Preferably, the quantity of active ingredient dissolved is greater than the additive quantity by a factor of 2, more preferably 5, still more preferably 10 or even greater. The “additive quantity” is determined by dissolving the maximum possible quantity of active ingredient in the separate oily and aqueous phases (dissolving conditions being otherwise identical) corresponding to the constituents in the dispersion (saturation concentration), no further additional organic solvents being used. The dispersion according to the invention contains, in addition to the additive quantity, a superadditive quantity of dissolved active ingredient.
40 g emulsion from Example 1 consist 20% of oil (8 g) and ca. 80% of water (32 g). Thus on the basis of these solubilities, 8×0.0001 mg/ml plus 32×0.01 mg/ml, i.e. in total 0.3208 mg Amphotericin can be dissolved in 40 g emulsion components oil and water (i.e. approx. 0.008 mg/ml emulsion). In the present emulsion according to the invention 0.2 mg/ml emulsion could be incorporated (Example 1) without microscopic crystals of undissolved drug being detectable (Example 12).
Dissolved active ingredient is rapidly available. […] The solubility in water and oil phase amounts to, for example, 0.008 mg/ml in the case of Amphotericin B, the emulsion according to the invention dissolves without detectable crystals e.g. 0.2 mg/ml (Example 1). If 5 mg/ml dispersion is incorporated, the solubility is exceeded (supersaturated system).
(§1) The dispersions contains the active ingredient dissolved in an amount, which is greater than that amount which is the result of the mathematical addition of its maximal solubility in each of the water phase and the oil phase of the emulsion, which “addition amount” is determined under standard conditions (20° C., standard pressure) by dissolving the maximal amount of active ingredient in the separate oil and aqueous phases (maintaining the other dissolution conditions identical) corresponding to the proportions in the dispersion (saturation concentrations).

For data set [2] the following is noted: oral administration; cited from earlier work.
Data set [3] can be described thus: Solubility of Amphotericin in standard oils (soya oil, Miglyol 812). Format: physicochemical. The following applies: oil or lipid. Here is the method: The solubility of Amphotericin in soya oil (Long-chain Triglycerides—LCT) and in Miglyol 812 (Medium-chain Triglycerides—MCT), the standard oils for most commercially available emulsions for parenteral infusion is less than 0.0001 mg/ml.
as §1

Data set [4] can be described thus: Solubility of Amphotericin B in water. Format: physicochemical. The note with it: for solubility: water. On the procedure:
Thus the solubility of Amphotericin B in water is less than 0.001% (<0.01 mg/ml) at pH 6-7, i.e. the pH value of the emulsion. It is true that the solubility of Amphotericin is higher with pH 2 and pH 11 (0.1 mg/ml), however these solutions cannot be administered intravenously.
as §1

≈ marks a conversion by molar mass, not a printed value.

For `C[C@@H]1[C@H](O)[C@@H](C)/C=C/C=C/C=C/C=C/C=C/C=C/C=C/[C@H](O[C@@H]2O[C@H](C)[C@@H](O)[C@H](N)[C@@H]2O)C[C@@H]2O[C@](O)(C[C@@H](O)C[C@@H](O)[C@H](O)CC[C@@H](O)C[C@@H](O)CC(=O)O[C@H]1C)C[C@H](O)[C@H]2C(=O)O` [Amphotericin B], the “quantity that can be dissolved in 40 g emulsion components oil and water” value in data set [1] (8 g oil plus 32 g water, calculated from the separate solubilities) is 0.3208 mg. Also, the solubility (in general, how much of the substance goes into solution per volume) was roughly 8 µg/mL (≈ 8.66 µM) in data set [1] (20 °C, oil or lipid, per ml emulsion, calculated from the separate solubilities); less than 0.1 µg/mL in data set [3] (Miglyol 812 (medium-chain triglycerides, MCT), read-out: solubility in Miglyol 812 (Medium-chain Triglycerides, MCT)); less than 0.1 µg/mL in data set [3] (soya oil (long-chain triglycerides, LCT), read-out: solubility in soya oil (Long-chain Triglycerides, LCT)); 100 µg/mL (≈ 108 µM) in data set [4] (pH 2, aqueous buffer, read-out: solubility); 100 µg/mL (≈ 108 µM) in data set [4] (pH 11, aqueous buffer, read-out: solubility); less than 10 µg/mL in data set [4] (pH 6-7, the pH value of the emulsion, read-out: solubility in water). Also, the “quantity dissolved in the emulsion without detectable crystals” value in data set [1] (emulsion according to the invention (Example 1), Lipofundin N 20%) amounted to 0.2 mg/mL. The “solubility in water and oil phase (additive quantity)” value in data set [1] (per ml emulsion, calculated from the separate solubilities) is 8 µg/mL (≈ 8.66 µM). Also, the bioavailability result in data set [2] is listed as “almost zero”. Also, the solubility in water result in data set [4] (pH 6-7, the pH value of the emulsion) is “less than 0.001%”.

(Values after patent US7744909B2, “Dispersions for the formulation of slightly or poorly soluble agents” (Abbott GmbH & Co., KG, priority 2000, dated 2010).)
